{"source": "the supplement of paper PMC10307832", "assay_in_all_cases": "relative viability (nuclei count vs DMSO), 5 days (fraction); higher = more cells survive", "key": {"BEN": {"test_system": "BEN", "outline": "(§1)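 One day after seeding in 1536-well plates, lung cancer cell lines were dosed by pin tool. Dosing was either single-drug or a fixed anchor-drug dose plus five library-drug doses (not always all listed) in √10 steps. After 5 days, nuclei were stained in one fix-and-stain step and counted on 4× images, and relative viability is the nuclei count of treated wells over that of vehicle wells, given as the median of duplicate plates.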"}, "HCC-827": {"test_system": "HCC-827", "outline": "as §1"}, "LK-2": {"test_system": "LK-2", "outline": "as §1"}, "NCI-H1650": {"test_system": "NCI-H1650", "outline": "as §1"}, "NCI-H1792": {"test_system": "NCI-H1792", "outline": "as §1"}, "SW 1573": {"test_system": "SW 1573", "outline": "as §1"}, "LOU-NH91": {"test_system": "LOU-NH91", "outline": "as §1"}, "COR-L 105": {"test_system": "COR-L 105", "outline": "as §1"}, "SK-MES-1": {"test_system": "SK-MES-1", "outline": "as §1"}, "NCI-H2126": {"test_system": "NCI-H2126", "outline": "as §1"}, "LU99A": {"test_system": "LU99A", "outline": "as §1"}, "HCC-78": {"test_system": "HCC-78", "settings": "first compound 0.08 µM", "outline": "as §1"}}}
{"smiles": "Cc1cnc(-c2cnc(NCCNc3ccc(C#N)cn3)nc2-c2ccc(Cl)cc2Cl)[nH]1", "note": "+ O=C(c1cc(Cc2n[nH]c(=O)c3ccccc23)ccc1F)N1CCN(C(=O)C2CC2)CC1 [Olaparib] (partner 8 µM)", "values": [{"measurement": "relative viability", "setting": "BEN; first compound 0.08 µM", "result": 1.17}, {"measurement": "relative viability", "setting": "BEN; first compound 0.253 µM", "result": 1.04}, {"measurement": "relative viability", "setting": "BEN; first compound 0.8 µM", "result": 0.973}, {"measurement": "relative viability", "setting": "BEN; first compound 2.53 µM", "result": 0.978}, {"measurement": "relative viability", "setting": "HCC-827; first compound 0.08 µM", "result": 0.582}, {"measurement": "relative viability", "setting": "HCC-827; first compound 0.253 µM", "result": 0.514}, {"measurement": "relative viability", "setting": "HCC-827; first compound 0.8 µM", "result": 0.572}, {"measurement": "relative viability", "setting": "HCC-827; first compound 2.53 µM", "result": 0.561}, {"measurement": "relative viability", "setting": "LK-2; first compound 0.08 µM", "result": 0.728}, {"measurement": "relative viability", "setting": "LK-2; first compound 0.253 µM", "result": 0.543}, {"measurement": "relative viability", "setting": "LK-2; first compound 0.8 µM", "result": 0.611}, {"measurement": "relative viability", "setting": "LK-2; first compound 2.53 µM", "result": 0.78}, {"measurement": "relative viability", "setting": "NCI-H1650; first compound 0.08 µM", "result": 0.724}, {"measurement": "relative viability", "setting": "NCI-H1650; first compound 0.253 µM", "result": 0.737}, {"measurement": "relative viability", "setting": "NCI-H1650; first compound 0.8 µM", "result": 0.808}, {"measurement": "relative viability", "setting": "NCI-H1650; first compound 2.53 µM", "result": 0.868}, {"measurement": "relative viability", "setting": "NCI-H1792; first compound 0.08 µM", "result": 0.377}, {"measurement": "relative viability", "setting": "NCI-H1792; first compound 0.253 µM", "result": 0.357}, {"measurement": "relative viability", "setting": "NCI-H1792; first compound 0.8 µM", "result": 0.345}, {"measurement": "relative viability", "setting": "NCI-H1792; first compound 2.53 µM", "result": 0.397}, {"measurement": "relative viability", "setting": "SW 1573; first compound 0.08 µM", "result": 0.532}, {"measurement": "relative viability", "setting": "SW 1573; first compound 0.253 µM", "result": 0.406}, {"measurement": "relative viability", "setting": "SW 1573; first compound 0.8 µM", "result": 0.494}, {"measurement": "relative viability", "setting": "SW 1573; first compound 2.53 µM", "result": 0.233}, {"measurement": "relative viability", "setting": "LOU-NH91; first compound 0.08 µM", "result": 0.94}, {"measurement": "relative viability", "setting": "LOU-NH91; first compound 0.253 µM", "result": 0.868}, {"measurement": "relative viability", "setting": "LOU-NH91; first compound 0.8 µM", "result": 0.962}, {"measurement": "relative viability", "setting": "LOU-NH91; first compound 2.53 µM", "result": 0.877}, {"measurement": "relative viability", "setting": "COR-L 105; first compound 0.08 µM", "result": 0.734}, {"measurement": "relative viability", "setting": "COR-L 105; first compound 0.253 µM", "result": 0.711}, {"measurement": "relative viability", "setting": "COR-L 105; first compound 0.8 µM", "result": 0.642}, {"measurement": "relative viability", "setting": "COR-L 105; first compound 2.53 µM", "result": 0.691}, {"measurement": "relative viability", "setting": "SK-MES-1; first compound 0.08 µM", "result": 0.734}, {"measurement": "relative viability", "setting": "SK-MES-1; first compound 0.253 µM", "result": 0.704}, {"measurement": "relative viability", "setting": "SK-MES-1; first compound 0.8 µM", "result": 0.738}, {"measurement": "relative viability", "setting": "SK-MES-1; first compound 2.53 µM", "result": 0.762}, {"measurement": "relative viability", "setting": "NCI-H2126; first compound 0.08 µM", "result": 0.922}, {"measurement": "relative viability", "setting": "NCI-H2126; first compound 0.253 µM", "result": 0.908}, {"measurement": "relative viability", "setting": "NCI-H2126; first compound 0.8 µM", "result": 0.89}, {"measurement": "relative viability", "setting": "NCI-H2126; first compound 2.53 µM", "result": 0.898}, {"measurement": "relative viability", "setting": "LU99A; first compound 0.08 µM", "result": 0.254}, {"measurement": "relative viability", "setting": "LU99A; first compound 0.253 µM", "result": 0.256}, {"measurement": "relative viability", "setting": "LU99A; first compound 0.8 µM", "result": 0.231}, {"measurement": "relative viability", "setting": "LU99A; first compound 2.53 µM", "result": 0.253}, {"measurement": "relative viability", "setting": "HCC-78", "result": 0.865}]}
